Results published in patent USRE50528E1, “Compounds and compositions for modulating EGFR mutant kinase activities” (Yuhan Corporation, priority 2014, dated 2025).

Columns and labels:
EGFR mutant T790M = biological target: T1, EGFR mutant T790M (Homo sapiens, UniProt P00533, T790M); experiment: Kinase inhibition assay, EGFR mutant T790M; settings: biochemical potency;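 further: truncated human EGFR mutant enzyme preincubated two hours with compound, then ATP plus ULight-PolyGT peptide for one hour, Europium-labeled antibody LANCE detection, IC50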
T1 construct: truncated human JAK3, EGFR mutants such as del E746-A750; purchased Carna Biosciences
T1 sequence (P00533 669-1210 T790M limits assumed): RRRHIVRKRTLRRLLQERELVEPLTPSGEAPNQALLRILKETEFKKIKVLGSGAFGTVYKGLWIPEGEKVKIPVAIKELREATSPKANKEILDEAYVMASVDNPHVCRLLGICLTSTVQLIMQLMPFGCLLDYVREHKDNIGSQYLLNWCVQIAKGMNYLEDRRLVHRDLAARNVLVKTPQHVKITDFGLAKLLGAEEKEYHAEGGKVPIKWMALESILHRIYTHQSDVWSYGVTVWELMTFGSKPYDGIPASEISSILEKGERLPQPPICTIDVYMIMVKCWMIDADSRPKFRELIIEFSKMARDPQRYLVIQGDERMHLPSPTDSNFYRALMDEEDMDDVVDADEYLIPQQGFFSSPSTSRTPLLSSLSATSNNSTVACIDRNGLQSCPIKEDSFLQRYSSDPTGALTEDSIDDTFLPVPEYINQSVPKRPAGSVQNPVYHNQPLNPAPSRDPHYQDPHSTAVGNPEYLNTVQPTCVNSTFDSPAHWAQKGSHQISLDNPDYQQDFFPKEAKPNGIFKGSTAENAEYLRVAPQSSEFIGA

H2073 (EGFR wildtype) = experiment: Cell viability assay, H2073; format: cell-based; settings: for IC50: NCI-H2073, cellular potency, 72-hour incubation, ATPLite;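 on all read-outs here: NSCLC cell line whose survival relies on wildtype EGFR, treated with serially diluted compound, cytotoxic effect judged from remaining cell viability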
EGFR mutant L858R = biological target: T2, EGFR mutant L858R (Homo sapiens, UniProt P00533, L858R); experiment: Kinase inhibition assay, EGFR L858R; format: biochemical; settings: read-out: EGFR mutants L858R;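 further: truncated human EGFR L858R kinase with compound preincubation, ULight-PolyGT peptide phosphorylation read by Europium-antibody Lance detection, IC50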
T2 construct: truncated human JAK3, EGFR mutants such as del E746-A750; purchased Carna Biosciences
T2 sequence (P00533 669-1210 L858R limits assumed): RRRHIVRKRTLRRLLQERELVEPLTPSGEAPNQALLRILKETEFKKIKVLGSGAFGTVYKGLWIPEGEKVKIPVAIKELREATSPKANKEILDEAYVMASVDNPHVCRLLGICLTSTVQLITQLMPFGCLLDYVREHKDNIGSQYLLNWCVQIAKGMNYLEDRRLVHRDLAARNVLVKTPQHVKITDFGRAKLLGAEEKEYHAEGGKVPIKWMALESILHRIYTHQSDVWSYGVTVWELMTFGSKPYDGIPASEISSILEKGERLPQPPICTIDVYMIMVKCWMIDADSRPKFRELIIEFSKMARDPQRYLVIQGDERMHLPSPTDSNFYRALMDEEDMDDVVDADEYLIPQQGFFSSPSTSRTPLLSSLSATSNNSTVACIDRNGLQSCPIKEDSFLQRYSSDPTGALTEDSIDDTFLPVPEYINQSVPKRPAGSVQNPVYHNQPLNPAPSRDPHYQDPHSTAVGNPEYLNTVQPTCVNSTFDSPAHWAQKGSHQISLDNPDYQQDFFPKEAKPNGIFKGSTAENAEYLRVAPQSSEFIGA

SYK = biological target: T3, SYK (Homo sapiens, UniProt P43405); experiment: Kinase inhibition assay, SYK; format: biochemical; settings: for IC50: biochemical potency;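 on all read-outs here: purified full-length human SYK pre-incubated 30 min with compound, then ULight-TK peptide phosphorylation for 1 h, detected with Europium-labeled antibody in Lance buffer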
T3 construct: Purified human, full-length SYK, KDR; purchased Carna Biosciences

p-EGFR L858R/T790M = biological target: T4, p-EGFR L858R/T790M (Homo sapiens, UniProt P00533, L858R/T790M); experiment: Western analysis, H1975 p-EGFR L858R/T790M; format: cell-based; settings: for Selectivity over wildtype: p-wildtype over p-EGFR L858R, T790M: H1299 vs H1975; for IC50: molecular potency, 4 hours; for inhibition against p-EGFR L858R/T790M (in words): Western, FIG. 1
T4 construct: phosphorylation of mutant EGFR in NSCLC lines H1975; endogenous in cells; host or cells: H1975
T4 sequence (P00533 25-1210 T790M/L858R): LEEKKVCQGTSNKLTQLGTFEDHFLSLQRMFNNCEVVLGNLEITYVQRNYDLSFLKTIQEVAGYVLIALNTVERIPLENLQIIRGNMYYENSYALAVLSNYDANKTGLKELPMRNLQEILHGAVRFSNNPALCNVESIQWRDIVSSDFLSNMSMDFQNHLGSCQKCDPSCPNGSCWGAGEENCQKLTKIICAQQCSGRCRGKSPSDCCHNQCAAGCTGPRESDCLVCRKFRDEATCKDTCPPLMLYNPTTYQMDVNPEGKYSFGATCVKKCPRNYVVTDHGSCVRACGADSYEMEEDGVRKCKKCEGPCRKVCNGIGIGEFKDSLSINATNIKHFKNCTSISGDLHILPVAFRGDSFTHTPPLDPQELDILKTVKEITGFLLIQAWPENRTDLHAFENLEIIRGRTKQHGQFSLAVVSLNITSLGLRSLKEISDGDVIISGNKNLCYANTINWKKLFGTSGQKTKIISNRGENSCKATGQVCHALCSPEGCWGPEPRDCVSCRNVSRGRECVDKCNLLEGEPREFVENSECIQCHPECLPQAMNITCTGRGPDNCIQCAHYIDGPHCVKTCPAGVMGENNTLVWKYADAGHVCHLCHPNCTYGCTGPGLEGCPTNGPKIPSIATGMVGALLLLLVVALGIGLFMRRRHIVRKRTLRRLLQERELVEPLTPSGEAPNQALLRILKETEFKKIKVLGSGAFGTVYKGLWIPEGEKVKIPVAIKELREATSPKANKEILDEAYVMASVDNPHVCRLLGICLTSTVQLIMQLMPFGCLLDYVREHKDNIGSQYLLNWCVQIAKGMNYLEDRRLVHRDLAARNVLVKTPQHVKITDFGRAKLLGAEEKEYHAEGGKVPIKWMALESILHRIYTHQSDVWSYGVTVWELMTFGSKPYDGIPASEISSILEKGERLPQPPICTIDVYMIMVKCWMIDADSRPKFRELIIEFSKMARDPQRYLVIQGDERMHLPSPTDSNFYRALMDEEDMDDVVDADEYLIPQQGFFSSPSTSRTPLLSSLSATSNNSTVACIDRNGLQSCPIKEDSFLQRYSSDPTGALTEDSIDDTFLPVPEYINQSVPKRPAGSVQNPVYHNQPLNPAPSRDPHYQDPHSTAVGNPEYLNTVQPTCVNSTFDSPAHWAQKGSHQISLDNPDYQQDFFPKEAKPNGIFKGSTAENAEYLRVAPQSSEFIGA

[1] = system: PC9 (EGFR del E746-A750 mutant); experiment: Cell viability assay, PC9; format: cell-based; settings: for Selectivity over wildtype, Wildtype vs mutant H2073/PC9 (fold): cellular potency ratio; for IC50: cellular potency, 72-hour incubation, ATPLite, read-out: EGFR Mutants PC9;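 on all read-outs here: NSCLC PC9 cells, whose viability relies on EGFR del E746-A750, exposed to serially diluted compound for 72 h at 37 °C, ATPLite read-out, IC50, H2073 as EGFR wildtype line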
EGFR mutant L858R/T790M = biological target: T5, EGFR mutant L858R/T790M (Homo sapiens, UniProt P00533, L858R/T790M); experiment: Kinase inhibition assay, EGFR L858R/T790M; format: biochemical; settings: read-out: EGFR mutants L858R/T790M;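 further: truncated human enzyme preincubated two hours with compound, then one hour with one millimolar ATP and ULight-PolyGT peptide, Europium-labeled antibody detection, IC50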
T5 construct: truncated human JAK3, EGFR mutants such as del E746-A750; purchased Carna Biosciences

[2] = biological target: T6, EGFR mutant Del19 (E746-A750) (Homo sapiens, UniProt P00533, DEL746-750); experiment: Kinase inhibition assay, EGFR del E746-A750; format: biochemical; settings: read-out: EGFR mutants Del19 (E746-A750);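 further: truncated human EGFR mutant kinase, two-hour preincubation with compound, then one-hour reaction with ATP and ULight-PolyGT peptide, LANCE Europium-antibody phosphorylation readout, IC50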
T6 construct: truncated human JAK3, EGFR mutants such as del E746-A750; purchased Carna Biosciences
T6 sequence (P00533 with tags, fused parts or gaps DEL746-750 limits assumed): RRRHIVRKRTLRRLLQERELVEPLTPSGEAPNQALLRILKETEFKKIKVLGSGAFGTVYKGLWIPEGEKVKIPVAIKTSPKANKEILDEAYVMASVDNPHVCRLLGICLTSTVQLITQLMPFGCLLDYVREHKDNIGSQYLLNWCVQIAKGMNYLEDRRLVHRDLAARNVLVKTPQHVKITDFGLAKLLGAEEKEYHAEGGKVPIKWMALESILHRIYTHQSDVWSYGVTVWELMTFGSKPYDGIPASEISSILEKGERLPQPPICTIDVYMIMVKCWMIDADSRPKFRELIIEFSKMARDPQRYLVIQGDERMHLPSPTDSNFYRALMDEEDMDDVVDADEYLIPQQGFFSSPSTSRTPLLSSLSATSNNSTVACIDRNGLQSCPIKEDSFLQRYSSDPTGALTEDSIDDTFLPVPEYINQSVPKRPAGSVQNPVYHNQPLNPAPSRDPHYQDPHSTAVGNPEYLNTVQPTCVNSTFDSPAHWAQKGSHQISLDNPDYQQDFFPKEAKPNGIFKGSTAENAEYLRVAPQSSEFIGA

JAK3 = biological target: T7, JAK3 (Homo sapiens, UniProt P52333); experiment: Kinase inhibition assay, JAK3; settings: biochemical potency;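 further: IC50 against purified truncated human JAK3 preincubated with compound, then reacted with ATP and ULight-Jak1 peptide, phosphorylation read by Europium-labeled antibody LANCE detection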
T7 construct: EGFR and JAK3 (JH1domain-catalytic) kinases, and mutant forms thereof; purchased Carna Biosciences
T7 sequence (P52333 822-1111 limits assumed): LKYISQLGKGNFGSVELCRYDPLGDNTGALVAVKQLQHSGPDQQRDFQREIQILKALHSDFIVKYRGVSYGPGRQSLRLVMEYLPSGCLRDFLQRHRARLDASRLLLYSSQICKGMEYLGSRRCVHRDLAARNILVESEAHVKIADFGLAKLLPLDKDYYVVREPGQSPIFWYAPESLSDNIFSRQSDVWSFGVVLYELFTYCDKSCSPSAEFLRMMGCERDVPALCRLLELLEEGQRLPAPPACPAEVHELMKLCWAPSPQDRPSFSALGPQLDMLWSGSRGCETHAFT

KDR = biological target: T8, KDR (Homo sapiens, UniProt P35968); experiment: Kinase inhibition assay, KDR; format: biochemical; settings: for IC50: biochemical potency;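 on all read-outs here: purified full-length human KDR, 30 min preincubation with compound, then 1 h reaction with ATP and Ulight-Jak1 peptide substrate, phosphorylation read by Lance Europium antibody detection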
T8 construct: Purified human, full-length SYK, KDR; purchased Carna Biosciences

EGFR mutant Del19/T790M = biological target: T9, EGFR mutant Del19/T790M (Homo sapiens, UniProt P00533, DEL746-750/T790M); experiment: Kinase inhibition assay, EGFR del E746-A750/T790M; format: biochemical; settings: read-out: EGFR mutants Del19/T790M
T9 construct: truncated human JAK3, EGFR mutants such as del E746-A750; purchased Carna Biosciences
T9 sequence (P00533 with tags, fused parts or gaps DEL746-750/T790M limits assumed): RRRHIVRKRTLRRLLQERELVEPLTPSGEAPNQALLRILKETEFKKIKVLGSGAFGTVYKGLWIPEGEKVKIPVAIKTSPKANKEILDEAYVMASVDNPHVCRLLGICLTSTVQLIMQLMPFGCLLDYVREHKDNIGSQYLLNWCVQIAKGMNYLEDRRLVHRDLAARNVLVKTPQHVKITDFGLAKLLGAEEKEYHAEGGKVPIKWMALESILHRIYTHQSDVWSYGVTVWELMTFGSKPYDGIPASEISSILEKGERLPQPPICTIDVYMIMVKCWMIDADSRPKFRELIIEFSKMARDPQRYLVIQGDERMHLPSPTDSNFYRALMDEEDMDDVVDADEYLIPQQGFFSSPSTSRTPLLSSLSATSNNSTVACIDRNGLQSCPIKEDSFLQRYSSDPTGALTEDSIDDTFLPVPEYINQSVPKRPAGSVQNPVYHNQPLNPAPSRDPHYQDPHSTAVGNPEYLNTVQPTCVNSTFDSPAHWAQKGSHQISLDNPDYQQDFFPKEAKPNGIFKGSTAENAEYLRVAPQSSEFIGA

p-EGFR del E746-A750 = biological target: T10, p-EGFR del E746-A750 (Homo sapiens, UniProt P00533, DEL746-750); experiment: Western analysis, PC9 p-EGFR del E746-A750; format: cell-based; settings: for Selectivity over wildtype: p-wildtype over p-EGFR del19: H1299 vs PC9; for IC50: molecular potency, 4 hours, read-out: PC9 p-EGFR del 19 (E746-A750); for inhibition against p-EGFR del E746-A750 (in words): Western, FIG. 1
T10 construct: phosphorylation of mutant EGFR in NSCLC lines PC9; endogenous in cells; host or cells: PC9
T10 sequence (P00533 with tags, fused parts or gaps DEL746-750): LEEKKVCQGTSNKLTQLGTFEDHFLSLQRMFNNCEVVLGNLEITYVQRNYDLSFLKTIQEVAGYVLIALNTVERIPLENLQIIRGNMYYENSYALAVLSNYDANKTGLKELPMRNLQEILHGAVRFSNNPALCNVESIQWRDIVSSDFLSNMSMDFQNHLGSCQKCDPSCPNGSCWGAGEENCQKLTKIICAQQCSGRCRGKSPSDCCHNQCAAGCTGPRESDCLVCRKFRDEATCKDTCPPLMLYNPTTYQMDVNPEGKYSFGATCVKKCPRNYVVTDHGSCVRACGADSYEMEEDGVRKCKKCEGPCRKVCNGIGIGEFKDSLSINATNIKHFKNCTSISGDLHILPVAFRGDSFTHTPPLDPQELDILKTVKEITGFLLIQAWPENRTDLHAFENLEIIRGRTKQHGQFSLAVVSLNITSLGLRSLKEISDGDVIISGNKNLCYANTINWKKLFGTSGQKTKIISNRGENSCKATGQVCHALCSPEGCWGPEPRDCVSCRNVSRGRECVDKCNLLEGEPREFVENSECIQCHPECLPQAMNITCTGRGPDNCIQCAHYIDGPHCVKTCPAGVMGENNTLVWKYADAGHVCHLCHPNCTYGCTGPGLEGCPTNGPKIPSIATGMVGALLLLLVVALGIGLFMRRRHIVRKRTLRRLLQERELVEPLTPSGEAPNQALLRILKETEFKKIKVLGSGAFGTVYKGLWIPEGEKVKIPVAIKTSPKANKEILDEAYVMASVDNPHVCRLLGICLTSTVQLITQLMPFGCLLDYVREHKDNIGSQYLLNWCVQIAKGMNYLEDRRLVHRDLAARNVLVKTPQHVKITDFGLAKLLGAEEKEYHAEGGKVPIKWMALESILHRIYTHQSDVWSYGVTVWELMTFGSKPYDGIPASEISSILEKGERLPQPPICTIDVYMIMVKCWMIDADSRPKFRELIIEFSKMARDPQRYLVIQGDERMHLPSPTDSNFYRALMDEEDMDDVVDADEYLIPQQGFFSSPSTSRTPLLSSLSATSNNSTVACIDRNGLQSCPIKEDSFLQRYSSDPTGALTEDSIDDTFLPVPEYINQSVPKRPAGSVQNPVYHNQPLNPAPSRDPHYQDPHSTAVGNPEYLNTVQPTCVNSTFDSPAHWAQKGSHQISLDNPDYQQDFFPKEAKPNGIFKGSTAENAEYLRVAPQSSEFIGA

p-EGFR wildtype = biological target: T11, p-EGFR wildtype (Homo sapiens, UniProt P00533); experiment: Western analysis, H1299 p-EGFR wildtype; format: cell-based; settings: for IC50: molecular potency, 4 hours, 3 nM EGF ligand; for inhibition against p-EGFR wildtype (in words): Western, FIG. 1
T11 construct: endogenous in cells; host or cells: H1299

[3] = system: H1975 (EGFR L858R/T790M mutant); experiment: Cell viability assay, H1975; format: cell-based; settings: for IC50: Homo sapiens, NCI-H1975, cellular potency, 72-hour incubation, ATPLite, read-out: EGFR Mutants H1975; for Selectivity over wildtype, Wildtype vs mutant H2073/H1975 (fold): cellular potency ratio;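 on all read-outs here: NSCLC cells whose survival relies on EGFR L858R/T790M, exposed 72 h to serially diluted compound, ATP-based viability readout, with the H2073 line (wildtype EGFR dependent) as wildtype comparator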
[4] = approximate ATP Km concentration

Row | SMILES | IC50 (EGFR mutant T790M) | IC50 (H2073 (EGFR wildtype)) | IC50 (EGFR mutant L858R) | IC50 (SYK) | Selectivity over wildtype: p-wildtype over p-EGFR L858R, T790M (p-EGFR L858R/T790M) | IC50 (p-EGFR L858R/T790M) | Selectivity over wildtype, Wildtype vs mutant H2073/PC9 (fold) [1] | IC50 [1] | IC50 (EGFR mutant L858R/T790M) | IC50 [2] | IC50 (JAK3) | IC50 (KDR) | IC50 (EGFR mutant Del19/T790M) | Selectivity over wildtype: p-wildtype over p-EGFR del19 (p-EGFR del E746-A750) | IC50 (p-EGFR del E746-A750) | IC50 (p-EGFR wildtype) | IC50 [3] | Selectivity over wildtype, Wildtype vs mutant H2073/H1975 (fold) [3] | further results
1 | C=CC(=O)Nc1cc(Nc2nccc(-n3cc(CN4CCC4)c(C)n3)n2)c(OC)cc1N1CCOCC1 [Compound 14, N-(5-(4-(4-(azetidin-1-ylmethyl)-3-methyl-1H-pyrazol-1-yl)pyrimidin-2-ylamino)-4-methoxy-2-morpholinophenyl)acrylamide] | < 20 nM | > 1000 nM | < 20 nM | 201 to 1000 nM | 20-100 fold | < 20 nM | >200 fold | < 20 nM | < 20 nM | < 20 nM | < 20 nM | > 1000 nM | < 20 nM | >200 fold | < 20 nM | > 1000 nM | 20 to 200 nM | 20-100 fold | –
2 | C=CC(=O)Nc1cc(Nc2ncc(C)c(-n3cc(CN4C[C@H](O)[C@H](OC)C4)c(C)n3)n2)c(OC)cc1N1CCOCC1 [Compound 26, N-(5-(4-(4-(((3S,4R)-3-hydroxy-4-methoxypyrrolidin-1-yl)methyl)-3-methyl-1H-pyrazol-1-yl)-5-methylpyrimidin-2-ylamino)-4-methoxy-2-morpholinophenyl)acrylamide] | < 20 nM | > 1000 nM | < 20 nM | 201 to 1000 nM | >200 fold | < 20 nM | 20-100 fold | 20 to 200 nM | < 20 nM | < 20 nM | < 20 nM | > 1000 nM | < 20 nM | >200 fold | < 20 nM | > 1000 nM | 20 to 200 nM | 101-200 fold | Selectivity over wildtype: p-wildtype over p-EGFR L858R, T790M (p-EGFR L858R/T790M; listed as compound 26): 1440.3 fold; inhibition against p-EGFR L858R/T790M (in words) (p-EGFR L858R/T790M): potent inhibition; Selectivity over wildtype: p-wildtype over p-EGFR del19 (p-EGFR del E746-A750; listed as compound 26): 572.4 fold; inhibition against p-EGFR del E746-A750 (in words) (p-EGFR del E746-A750): potent inhibition; inhibition against p-EGFR wildtype (in words) (p-EGFR wildtype): not p-EGFR wildtype
3 | C=CC(=O)Nc1cc(Nc2nccc(-n3cc(CN(C)C)c(C)n3)n2)c(OC)cc1N1CCOCC1 [Compound 46, N-(5-(4-(4-((dimethylamino)methyl)-3-methyl-1H-pyrazol-1-yl)pyrimidin-2-ylamino)-4-methoxy-2-morpholinophenyl)acrylamide] | < 20 nM | > 1000 nM | < 20 nM | 201 to 1000 nM | 20-100 fold | < 20 nM | >200 fold | < 20 nM | < 20 nM | < 20 nM | < 20 nM | > 1000 nM | < 20 nM | 20-100 fold | < 20 nM | 20 to 200 nM | 20 to 200 nM | 101-200 fold | –
4 | C=CC(=O)Nc1cc(Nc2nccc(-n3cc(CN(C)C)c(-c4ccccc4)n3)n2)c(OC)cc1N1CCOCC1 [Compound 73, N-(5-(4-(4-((dimethylamino)methyl)-3-phenyl-1H-pyrazol-1-yl)pyrimidin-2-ylamino)-4-methoxy-2-morpholinophenyl)acrylamide] | < 20 nM | > 1000 nM | < 20 nM | 201 to 1000 nM | 20-100 fold | < 20 nM | >200 fold | < 20 nM | < 20 nM | < 20 nM | < 20 nM | > 1000 nM | < 20 nM | 20-100 fold | < 20 nM | 201 to 1000 nM | < 20 nM | >200 fold | inhibition in H2073 cell (in words) (H2073 (EGFR wildtype); cell viability): not in H2073; inhibition of the kinase activity of SYK (in words) (SYK; [4]): poorly inhibit; inhibition against p-EGFR L858R/T790M (in words) (p-EGFR L858R/T790M): potent inhibition; inhibition in PC9 cell (in words) ([1]; cell viability): potent inhibition; Selectivity over wildtype, Wildtype vs mutant H2073/PC9 (fold) ([1]; listed as compound 73): > 200 fold; inhibition of the kinase activity of KDR (in words) (KDR; [4]): poorly inhibit; inhibition against p-EGFR del E746-A750 (in words) (p-EGFR del E746-A750): potent inhibition; inhibition against p-EGFR wildtype (in words) (p-EGFR wildtype): not p-EGFR wildtype; inhibition in H1975 cell (in words) ([3]; cell viability): potent inhibition; Selectivity over wildtype, Wildtype vs mutant H2073/H1975 (fold) ([3]; listed as compound 73): > 200 fold
5 | C=CC(=O)Nc1cc(Nc2nccc(-n3cc(CN(C)C)c(C4CC4)n3)n2)c(OC)cc1N1CCOCC1 [Compound 74, N-(5-(4-(3-cyclopropyl-4-((dimethylamino)methyl)-1H-pyrazol-1-yl)pyrimidin-2-ylamino)-4-methoxy-2-morpholinophenyl)acrylamide] | < 20 nM | > 1000 nM | < 20 nM | 20 to 200 nM | 20-100 fold | < 20 nM | >200 fold | < 20 nM | < 20 nM | < 20 nM | < 20 nM | > 1000 nM | < 20 nM | 101-200 fold | < 20 nM | 201 to 1000 nM | < 20 nM | >200 fold | –
6 | C=CC(=O)Nc1cc(Nc2nccc(-n3cc(CN4CCC4)c(-c4ccccc4)n3)n2)c(OC)cc1N1CCOCC1 [Compound 78, N-(5-(4-(4-(azetidin-1-ylmethyl)-3-phenyl-1H-pyrazol-1-yl)pyrimidin-2-ylamino)-4-methoxy-2-morpholinophenyl)acrylamide] | < 20 nM | > 1000 nM | < 20 nM | > 1000 nM | 101-200 fold | < 20 nM | >200 fold | < 20 nM | < 20 nM | < 20 nM | 20 to 200 nM | > 1000 nM | < 20 nM | >200 fold | < 20 nM | > 1000 nM | < 20 nM | >200 fold | –
7 | C=CC(=O)Nc1cc(Nc2ncc(C)c(-n3cc(CN(C)C)c(C4CC4)n3)n2)c(OC)cc1N1CCOCC1 [Compound 122, N-(5-(4-(3-cyclopropyl-4-((dimethylamino)methyl)-1H-pyrazol-1-yl)-5-methylpyrimidin-2-ylamino)-4-methoxy-2-morpholinophenyl)acrylamide] | < 20 nM | > 1000 nM | < 20 nM | 20 to 200 nM | 20-100 fold | < 20 nM | >200 fold | < 20 nM | < 20 nM | < 20 nM | < 20 nM | > 1000 nM | < 20 nM | 20-100 fold | < 20 nM | 201 to 1000 nM | < 20 nM | >200 fold | –
8 | C=CC(=O)Nc1cc(Nc2ncc(C)c(-n3cc(CN(C)C)c(C(C)C)n3)n2)c(OC)cc1N1CCOCC1 [Compound 124, N-(5-(4-(4-((dimethylamino)methyl)-3-isopropyl-1H-pyrazol-1-yl)-5-methylpyrimidin-2-ylamino)-4-methoxy-2-morpholinophenyl)acrylamide] | < 20 nM | > 1000 nM | < 20 nM | 20 to 200 nM | – | – | >200 fold | < 20 nM | < 20 nM | < 20 nM | < 20 nM | > 1000 nM | < 20 nM | – | – | – | < 20 nM | >200 fold | –
